Test results reported in patent US20100009956A1, “NOVEL SUBSTITUTED PYRIMIDINES AS CYSTEINE PROTEASE INHIBITORS” (Glaxo Group Limited , a corporation, priority 2006, published 2010).
Counter-ions that a name gives are not always drawn. Like-named read-outs stand apart in the source and are kept apart here.

Key:
Falcipain-3 = Falcipain-3 (Plasmodium falciparum, UniProt Q8IIL0); test: Falcipain-3 enzymatic assay (assay 1); assay type: biochemical
How it was run: (§1)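 Recombinant parasite enzyme with 30 uM H-D-VLR-AFC in 100 mM sodium acetate pH 5.5, 10 mM DTT, 0.5 mM CHAPS, 1% DMSO, ambient temperature. Endpoint after 60 minutes, quenched with 16.6 uM E-64; AFC fluorescence (ex 405/em 530). IC50 from four-parameter fit, apparent KI assuming competitive inhibition.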

Cathepsin S = Cathepsin S (Homo sapiens, UniProt P25774); test: Cathepsin S enzymatic assay (assay 1); assay type: biochemical; conditions: human recombinant enzyme, KQKLR-AMC substrate, pH 6.5
Procedure: Assay 1) Determination of Falcipain-2, Falcipain-3, Vivapain-2, Cathepsin K Cathepsin S, Cathepsin L, and Cathepsin B Proteolytic Catalytic Activity
Assays for Falcipain-2, Falcipain-3, and Vivapain-2 are carried out with parasitic recombinant enzymes. Cathepsins K, S, L, and B are carried out with human recombinant enzymes. Standard assay conditions for the determination of kinetic constants used a fluorogenic peptide substrate, typically H-D-VLR-AFC (Falcipain-2, Falcipain-3, Vivapain-2), Z-FR-AFC (Cathepsin K, L, B), or KQKLR-AMC (Cathepsin S) and are determined in 100 mM sodium acetate, pH 5.5, containing 10 mM DTT and 0.5 mM CHAPS (Falcipain-2, Falcipain-3, Vivapain-2), and 100 mM sodium acetate, pH 5.5, containing 5 mM L-cysteine, 1 mM CHAPS and 5 mM EDTA (Cathepsin K, L, B), or 50 mM MES, pH 6.5, containing 0.5 mM CHAPS, 10 mM L-CYS, 5 mM EDTA (Cathepsin S). Stock substrate solutions are prepared at 20 mM in DMSO. The activity assays contained 30 uM substrate (Falcipain-2, Falcipain-3, Vivapain-2), 20 uM substrate (Cathepsin K), 25 uM substrate (Cathepsin B), 5 uM substrate (Cathepsin L), and 30 uM substrate (Cathepsin S). All assays contained 1% DMSO. […] All assays are conducted at ambient temperature as end point assays being quenched after 60 minutes with the exception of Cathepsin S at 90 minutes, with 16.6 uM E-64 in 1% DMSO. Product formation (AFC or AMC) is determined from fluorescence (excitation at 405 nm; emission at 530 nm, AFC, or excitation at 360 nm; emission at 460 nm, AMC) monitored with a LJL Aquest (Molecular Devices) fluorescent plate reader. In the case of kinetic reads (used in mechanism of action studies), the reaction is not quenched but is read in the plate reader every 3 minutes for approximately 90 minutes. In addition, the mechanism of action studies for Falcipain-2 utilize Z-LR-AMC as the substrate. Product formation is determined from the fluorescence of AMC, measured with a LJL Acquest (Molecular Devices) fluorescent plate reader (excitation at 360 nm; emission at 460 nm).
Potential inhibitors are evaluated using the quenched read (endpoint) method. Assays are carried out in the presence of variable concentrations of test compound. Reactions are initiated by addition of enzyme and substrate to wells containing inhibitor stamped in 100% DMSO. For endpoint assays, the reaction is quenched with the addition of E64. Dose response data is fit to an IC50 curve with preset fitting tools according to equation 1:
y=a+(b−a)/(1+(10^x/10^c)^d) (1)
where y is the response at a particular inhibitor concentration x, a is the minimum response value, b is the maximum response value, c is the IC50, and d is the slope of the IC50 curve. Assuming the compound is a competitive inhibitor, the apparent KI can be calculated from IC50, as shown in equation 2: […]

Cathepsin K = target: T1, Cathepsin K (Homo sapiens, UniProt P43235); test: Cathepsin K enzymatic assay (assay 1); assay type: biochemical; conditions: human recombinant enzyme, Z-FR-AFC substrate, pH 5.5
T1 sequence (P43235 115-329): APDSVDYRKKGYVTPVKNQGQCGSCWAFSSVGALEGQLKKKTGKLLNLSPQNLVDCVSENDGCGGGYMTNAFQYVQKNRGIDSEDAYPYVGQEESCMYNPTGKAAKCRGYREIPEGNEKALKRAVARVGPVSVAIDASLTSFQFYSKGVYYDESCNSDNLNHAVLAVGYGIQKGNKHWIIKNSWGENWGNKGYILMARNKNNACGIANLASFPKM
How it was run: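 Human recombinant cathepsin K was assayed with the fluorogenic substrate Z-FR-AFC at 20 uM in 100 mM sodium acetate, pH 5.5, with 5 mM L-cysteine, 1 mM CHAPS, 5 mM EDTA and 1% DMSO. Enzyme plus substrate was added to wells holding inhibitor in DMSO. After 60 minutes at ambient temperature, 16.6 uM E-64 quenched the reaction. AFC fluorescence (excitation 405 nm, emission 530 nm) was read, and IC50 came from a four-parameter dose-response fit.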

Falcipain-2 = Falcipain-2 (Plasmodium falciparum, UniProt Q8I6U4); test: Falcipain-2 enzymatic assay (assay 1); assay type: biochemical
How it was run: as §1

[1] = test system: Plasmodium falciparum parasite; test: Whole cell assay (assay 2); assay type: cell-based
Excerpt: Assay 2) Determination of Whole Cell Activity Against the Plasmodium falciparum Parasite
Compounds can be evaluated for whole cell actvity against the Plasmodium falciparum parasite according to the procedure described in Sijwali S. and Rosenthal P. J., (2004) Proceedings of the National Academy of Sciences of the United States of America (PNAS) 101 (13), 4384-4389 (see in particular “Measurement of Parasite Growth rates and Inhibitor Sensitivity” on page 4385); IC50 values can be calculated as described in Singh A. and Rosenthal P. J., (2001) Antimicrobial Agents and Chemotherapy 45(3), 949-951 (see in particular page 950, first column); synchronised parasites can be prepared as described in Divo A. A. et al., (1985) Protozool. 32, 59-64.

[2] = parasitic recombinant enzyme, H-D-VLR-AFC substrate, pH 5.5, endpoint read, read-out: Falcipain-2 IC50
[3] = parasitic recombinant enzyme, H-D-VLR-AFC substrate, pH 5.5, endpoint read, read-out: Falcipain-3 IC50

Chain of Falcipain-3 (Q8IIL0 243-492): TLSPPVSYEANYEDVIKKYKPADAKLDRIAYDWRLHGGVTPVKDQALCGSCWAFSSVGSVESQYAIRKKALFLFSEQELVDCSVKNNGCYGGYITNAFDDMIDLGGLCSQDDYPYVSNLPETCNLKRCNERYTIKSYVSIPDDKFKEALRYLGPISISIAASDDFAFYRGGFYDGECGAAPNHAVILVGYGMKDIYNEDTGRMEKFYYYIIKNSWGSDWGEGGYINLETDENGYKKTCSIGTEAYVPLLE
Chain of Falcipain-2 (Q8I6U4 244-484): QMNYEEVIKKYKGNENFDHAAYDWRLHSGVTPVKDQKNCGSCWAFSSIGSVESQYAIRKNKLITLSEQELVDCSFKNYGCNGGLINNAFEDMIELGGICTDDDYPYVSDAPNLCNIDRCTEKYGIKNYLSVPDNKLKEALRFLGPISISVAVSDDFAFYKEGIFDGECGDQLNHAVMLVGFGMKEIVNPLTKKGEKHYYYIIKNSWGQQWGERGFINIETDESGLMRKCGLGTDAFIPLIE
Chain of Cathepsin S (P25774 115-331): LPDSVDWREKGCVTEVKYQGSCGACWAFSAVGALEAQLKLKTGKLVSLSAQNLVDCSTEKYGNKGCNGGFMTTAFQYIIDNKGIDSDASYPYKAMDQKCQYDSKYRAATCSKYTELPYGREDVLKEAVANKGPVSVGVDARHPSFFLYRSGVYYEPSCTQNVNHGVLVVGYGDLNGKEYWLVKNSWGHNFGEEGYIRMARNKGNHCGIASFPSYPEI

| Molecule | IC50 (Falcipain-3) [nM] | IC50 (Cathepsin S) [nM] | IC50 (Cathepsin K) [nM] | IC50 (Falcipain-2; [2]) [nM] | IC50 (Falcipain-3; [3]) [nM] | IC50 (Falcipain-2) [nM] | IC50 [1] [nM] |
| --- | --- | --- | --- | --- | --- | --- | --- |
| CN1CCN(Cc2ccc(C(=O)NN(c3nc(C#N)ncc3Cl)C3CCCC3)cc2)CC1 [Example 50, N′-(5-chloro-2-cyano-4-pyrimidinyl)-N′-cyclopentyl-4-[(4-methyl-1-piperazinyl)methyl]benzohydrazide trifluoroacetate] | 15 to 150 | < 200 | < 1.5 | < 1 | – | – | – |
| CN1CCN(C2CCN(Cc3ccc(C(=O)NN(c4nc(C#N)ncc4Cl)C4CCCCC4)cc3)CC2)CC1 [Example 40, N′-(5-chloro-2-cyano-4-pyrimidinyl)-N′-cyclohexyl-4-{[4-(4-methyl-1-piperazinyl)-1-piperidinyl]methyl}benzohydrazide] | – | < 200 | < 1.5 | – | 2.5 to 15 | < 1 | – |
| CN1CCN(Cc2ccc(C(=O)NN(c3nc(C#N)ncc3Cl)C3CCCCC3)cc2)CC1 [Example 51, N′-(5-chloro-2-cyano-4-pyrimidinyl)-N′-cyclohexyl-4-[(4-methyl-1-piperazinyl)methyl]benzohydrazide trifluoroacetate] | 15 to 150 | < 200 | < 1.5 | – | – | 1 to 2.5 | – |
| N′-(5-chloro-2-cyano-4-pyrimidinyl)-N′-cyclopentyl-4-{[methyl(3-methylbutyl)amino]methyl}benzohydrazide trifluoroacetate [Example 63] | – | – | – | < 1 | 2.5 to 15 | – | 2.5 to 15 |
| CN1CCN(C2CCN(Cc3ccc(C(=O)NN(c4nc(C#N)ncc4Cl)C4CCCCC4)cc3)CC2)CC1 [Example 41, N′-(5-chloro-2-cyano-4-pyrimidinyl)-N′-cyclohexyl-4-{([4-(4-methyl-1-piperazinyl)-1-piperidinyl]methyl}benzohydrazidedihydrochloride] | – | < 200 | < 1.5 | – | – | – | – |
| CN1CCN(Cc2ccc(-c3ccc(C(=O)NN(c4nc(C#N)ncc4Br)C4CCCCC4)cn3)cc2)CC1 [Example 44, N′-(5-bromo-2-cyano-4-pyrimidinyl)-N′-cyclohexyl-6-{4-[(4-methyl-1-piperazinyl)methyl]phenyl}-3-pyridinecarbohydrazide trifluoroacetate] | 2.5 to 15 | < 200 | < 1.5 | – | – | < 1 | – |
| CC1CCC(N(NC(=O)c2ccc(CN3CCC(N4CCN(C)CC4)CC3)cc2)c2nc(C#N)ncc2Br)C1 (mixture of isomers) [Example 4, N′-(5-bromo-2-cyano-4-pyrimidinyl)-N′-(3-methylcyclopentyl)-4-{[4-(4-methyl-1-piperazinyl)-1-piperidinyl]methyl}benzohydrazide trifluoroacetate] | 1 to 2.5 | < 1000 | < 1.5 | – | – | < 1 | – |
| CN1CCN(Cc2ccc(C(=O)NN(c3nc(C#N)ncc3Br)C3CCCC3)cc2)CC1 [Example 1, N′-(5-bromo-2-cyano-4-pyrimidinyl)-N′-cyclopentyl-4-[(4-methyl-1-piperazinyl)methyl]benzohydrazide trifluoroacetate] | – | < 200 | < 1.5 | – | – | < 1 | – |
| CN1CCCC(CN2CCN(Cc3cccc(C(=O)NN(c4nc(C#N)ncc4Br)C4CCCCC4)c3)CC2)C1 (stereo not shown) [Example 27, N′-(5-bromo-2-cyano-4-pyrimidinyl)-N′-cyclohexyl-3-({4-[(1-methyl-3-piperidinyl)methyl]-1-piperazinyl}methyl)benzohydrazide trifluoroacetate] | 2.5 to 15 | < 1000 | < 1.5 | – | – | < 1 | – |
| CC(=O)N1CCC(N(NC(=O)c2ccc(CN3CCC(C(=O)N4CCN(C)CC4)CC3)cc2)c2nc(C#N)ncc2Br)CC1 [Example 49, N′-(1-acetyl-4-piperidinyl)-N′-(5-bromo-2-cyano-4-pyrimidinyl)-4-({4-[(4-methyl-1-piperazinyl)carbonyl]-1-piperidinyl}methyl)benzohydrazide trifluoroacetate] | 15 to 150 | < 200 | < 17 | – | – | < 1 | – |
| CN1CCN(Cc2ccc(-c3ccc(C(=O)NN(c4nc(C#N)ncc4Br)C4CCCC4)cn3)cc2)CC1 [Example 46, N′-(5-bromo-2-cyano-4-pyrimidinyl)-N′-cyclopentyl-6-{4-[(4-methyl-1-piperazinyl)methyl]phenyl}-3-pyridinecarbohydrazide trifluoroacetate] | 15 to 150 | < 200 | < 1.5 | – | – | < 1 | – |
| CN1CCN(C2CCN(Cc3ccc(C(=O)NN(c4nc(C#N)ncc4Br)C4CCCCC4)cc3)CC2)CC1 [Example 17, N′-(5-bromo-2-cyano-4-pyrimidinyl)-N′-cyclohexyl-4-{[4-(4-methyl-1-piperazinyl)-1-piperidinyl]methyl}benzohydrazide trifluoroacetate] | 2.5 to 15 | < 1000 | < 1.5 | – | – | < 1 | – |
| CN1CCN(Cc2cccc(-c3cncc(C(=O)NN(c4nc(C#N)ncc4Br)C4CCCCC4)c3)c2)CC1 [Example 47, N′-(5-bromo-2-cyano-4-pyrimidinyl)-N′-cyclohexyl-5-{3-[(4-methyl-1-piperazinyl)methyl]phenyl}-3-pyridinecarbohydrazide trifluoroacetate] | 2.5 to 15 | < 200 | < 1.5 | – | – | < 1 | – |
| CC1CCC(N(NC(=O)c2ccc(CN3CCN(CC4CCN(C)CC4)CC3)cc2)c2nc(C#N)ncc2Br)C1 (mixture of isomers) [Example 5, N′(5-bromo-2-cyano-4-pyrimidinyl)-N′-(3-methylcyclopentyl)-4-({4-[(1-methyl4-piperidinyl)methyl]-1-piperazinyl}methyl)benzohydrazide trifluoroacetate] | 15 to 150 | < 1000 | < 1.5 | – | – | < 1 | – |
| CN(CCCc1ccccc1)Cc1ccc(C(=O)NN(c2nc(C#N)ncc2Cl)C2CCCC2)cc1 [Example 64, N′-(5-chloro-2-cyano-4-pyrimidinyl)-N′-cyclopentyl-4-{[methyl(3-phenylpropyl)amino]methyl}benzohydrazide trifluoroacetate] | 2.5 to 15 | < 200 | – | – | – | < 1 | – |
